Target: T1, GAT-1 (Mus musculus, UniProt P31648)
T1 construct: endogenous in cells; host or cells: primary cortical astrocytes from wild-type littermate pups (C57BL/6J background), passage 2
Test: 3H GABA uptake, cortical astrocytes cultured from wildtype pups
Assay type: cell-based
Conditions: wt astrocytes (pooled from two mouse lines); PBA 2 mM, 24 hr; SNAP5114 30 μM
Experimental: Mouse cortical astrocytes or neurons were cultured from postnatal pus at day 0-3 days old for astrocytes and day 0 for neurons from the SLC6A1^+/A288V or SLC6A1^+/S295L mouse line. FIGS. 7A-B show astrocytes under passage 2 were grown in […] dishes and passaged into 35-mm^2 dishes before GABA uptake assay.
FIGS. 7C-D show neurons directly cultured in the 35-mm^2 dishes and GABA uptake was evaluated between day 15-17 days after culture. CI-966 (50 μM) and NNC711 (35 μM) was applied 30 min before preincubation and removed during preincubation. GAT-3 inhibitor SNAP5114 (30 μM) was applied during GABA uptake to make sure only GAT-1 activity was measured. The wildtype astrocytes (FIGS. 7A-B) or cortical neurons (FIGS. 7C-D) of either SLC6A1^+/A288V or SLC6A1^+/S295L were taken as 1. The cultures derived from each mutant mouse was compared to the culture from its own wildtype littermates. […] The wildtype data were pooled from two mouse lines. […] The graph represents the relative GABA uptake level normalized to cells of its own genotype treated with DMSO. CI-966 (50 μM) or NNC-711 (35 μM) was applied 30 min before preincubation and removed during preincubation. Two-way analysis of variance followed by Bonferroni multiple comparison test was used. Values were expressed as mean±S.E.M. In FIG. 7A and FIG. 7C, ***p<0.001 vs. wt; § § § P<0.001 S295L vs. A288V. […]

O=C(O)CCCc1ccccc1 [PBA, 4-phenylbutyric acid]
GABA uptake activity normalized to its own DMSO condition: 1.22±0.058

Source: patent US20260144769A1, “4-PHENYLBUTYRATE RESTORED GABA UPTAKE AND REDUCED SEIZURES IN SLC6A1 VARIANT-MEDIATED DISORDERS” (Vanderbilt University, priority 2022, published 2026)
